According to publication PMC4503722, “Novel Phenotypic Outcomes Identified for a Public Collection of Approved Drugs from a Publicly Accessible Panel of Assays” (PLoS ONE, 2015):
Like-named read-outs stand apart in the source and are kept apart here.

What was measured:
[1] = test system: endothelial tube formation in co-cultures of ECFCs and ADSCs treated with VEGF; assay: cells; type: cell-based, human
DLD-1 = assay: cells; type: cell-based
HCT116 = assay: cells; type: cell-based
[2] = test system: HCT116 cells treated with a GSK3β inhibitor; assay: cells; type: cell-based
Colo320 = assay: cells; type: cell-based
HT-29 = assay: cells; type: cell-based
RKO = assay: cells; type: cell-based
SNU-C1 = assay: cells; type: cell-based
[3] = test system: ECFC/ADSC co-culture cell nuclei number
HeLa cells = assay: cells; type: cell-based
SW480 = assay: cells; type: cell-based
[4] = assay number 26, GSK3b inhibitor pretreated

SMILES: Cc1ccc2c(Br)cc(Br)c(O)c2n1 [NCGC00160566-02]
- IC50 ([1]; read-out: VEGF_ADSC\ECFC Angio CD31 TubeArea summarized IC50): > 10 µM
- IC50 (DLD-1; assay number 23, basal, read-out: Basal_Viability ATP DLD-1 summarized IC50): 4.77 µM
- IC50 (HCT116; assay number 25, basal, read-out: Basal_Viability ATP HCT116 summarized IC50): 1.16 µM
- IC50 ([2]; assay number 26, GSK3b inhibitor pretreated, read-out: GSK3b inh pretreated_Viability ATP HCT116 summarized IC50): 1.03 µM
- IC50 (Colo320; assay number 27, basal, read-out: Basal_Viability ATP Colo 320 summarized IC50): 0.001 µM
- IC50 (HT-29; assay number 28, basal, read-out: Basal_Viability ATP HT-29 summarized IC50): > 6.67 µM
- IC50 (RKO; assay number 29, basal, read-out: Basal_Viability ATP RKO summarized IC50): 0.311 µM
- IC50 (SNU-C1; assay number 30, basal, read-out: Basal_Viability ATP SNU-C1 summarized IC50): 12.8 µM
- IC50 ([3]; read-out: VEGF_ADSC\ECFC Angio Hoechst NucArea summarized IC50): > 10 µM

SMILES: Cl.O=C1[C@H]2CCCC[C@H]2C(=O)N1CCCCN1CCN(c2nsc3ccccc23)CC1 [NCGC00164567-02]
- Hela CellCycMod PI 2N IC50/EC50 (HeLa cells; assay number 14, 2N): > 10 µM
- Hela CellCycMod PI S Phase IC50/EC50 (HeLa cells; assay number 15, S phase): > 10 µM
- Hela CellCycMod PI 4N IC50/EC50 (HeLa cells; assay number 16, 4N): > 10 µM
- Hela CellCycMod PI MI IC50/EC50 (HeLa cells; assay number 17, MI): > 10 µM
- Hela CellCycMod PI Cell Number IC50/EC50 (HeLa cells; assay number 18, cell number): > 10 µM
- Basal_Viability ATP DLD-1 IC50/EC50 (DLD-1; assay number 23): 8.238 µM
- Basal_Viability ATP SW480 IC50/EC50 (SW480; assay number 24): 5.9082 µM
- Basal_Viability ATP HCT116 IC50/EC50 (HCT116; assay number 25, basal): 2.0649 µM
- GSK3b inh pretreated_Viability ATP HCT116 IC50/EC50 [2, 4]: 1.6729 µM
- Basal_Viability ATP Colo 320 IC50/EC50 (Colo320; assay number 27): 13.2075 µM
- Basal_Viability ATP HT-29 IC50/EC50 (HT-29; assay number 28): 2.0058 µM
- Basal_Viability ATP RKO IC50/EC50 (RKO; assay number 29): 0.5459 µM
- Basal_Viability ATP SNU-C1 IC50/EC50 (SNU-C1; assay number 30): 9.3713 µM

SMILES: O=C(NC1CCN(CCc2c[nH]c3ccccc23)CC1)c1ccccc1 [NCGC00165810-02]
- VEGF_ADSC\ECFC Angio CD31 TubeArea IC50/EC50 [1]: > 10 µM
- Basal_Viability ATP DLD-1 IC50/EC50 (DLD-1; assay number 23, basal): > 20 µM
- Basal_Viability ATP SW480 IC50/EC50 (SW480; assay number 24, basal): > 20 µM
- GSK3b inh pretreated_Viability ATP HCT116 IC50/EC50 [2, 4]: > 20 µM
- Basal_Viability ATP Colo 320 IC50/EC50 (Colo320; assay number 27, basal): > 20 µM
- Basal_Viability ATP HT-29 IC50/EC50 (HT-29; assay number 28, basal): > 20 µM
- Basal_Viability ATP RKO IC50/EC50 (RKO; assay number 29, basal): > 20 µM
- Basal_Viability ATP SNU-C1 IC50/EC50 (SNU-C1; assay number 30, basal): > 20 µM
- VEGF_ADSC\ECFC Angio Hoechst NucArea IC50/EC50 [3]: > 10 µM

SMILES: CCN1/C(=C/C=C/c2sc3ccccc3[n+]2CC)Sc2ccccc21.[I-] [NCGC00166288-02]
- IC50/EC50, Hela CellCycMod PI 2N (assay number 14) (HeLa cells; 2N): 8.506 µM
- IC50/EC50, Hela CellCycMod PI 4N (assay number 16) (HeLa cells; 4N): > 10 µM
- IC50/EC50, Hela CellCycMod PI Cell Number (assay number 18) (HeLa cells; Cell Number): 0.03604 µM
- IC50/EC50, Hela CellCycMod PI MI (assay number 17) (HeLa cells; MI): 4.476 µM
- IC50/EC50, Hela CellCycMod PI S Phase (assay number 15) (HeLa cells; S Phase): > 10 µM
- IC50/EC50, Basal_Viability ATP DLD-1 (assay number 23) (DLD-1; basal): 0.0148 µM
- IC50/EC50, Basal_Viability ATP SW480 (assay number 24) (SW480; basal): 0.172 µM
- IC50/EC50, Basal_Viability ATP HCT116 (assay number 25) (HCT116; basal): 0.00957 µM
- IC50/EC50, GSK3b inh pretreated_Viability ATP HCT116 (assay number 26) ([2]; GSK3b inh pretreated): 0.00875 µM
- IC50/EC50, Basal_Viability ATP Colo 320 (assay number 27) (Colo320; basal): 0.562 µM
- IC50/EC50, Basal_Viability ATP HT-29 (assay number 28) (HT-29; basal): 0.00838 µM
- IC50/EC50, Basal_Viability ATP RKO (assay number 29) (RKO; basal): 0.00898 µM
- IC50/EC50, Basal_Viability ATP SNU-C1 (assay number 30) (SNU-C1; basal): 0.01721 µM

SMILES: O=C(c1cc(O)c(O)c(O)c1)c1ccc(O)c(O)c1O [NCGC00249050-02]
- Hela CellCycMod PI 2N IC50/EC50 (HeLa cells): > 10 µM
- Hela CellCycMod PI 4N IC50/EC50 (HeLa cells): > 10 µM
- Hela CellCycMod PI Cell Number IC50/EC50 (HeLa cells): > 10 µM
- Hela CellCycMod PI MI IC50/EC50 (HeLa cells): > 10 µM
- Hela CellCycMod PI S Phase IC50/EC50 (HeLa cells): > 10 µM
- Basal_Viability ATP DLD-1 IC50/EC50 (DLD-1): 11.8874 µM
- Basal_Viability ATP SW480 IC50/EC50 (SW480): 9.9516 µM
- Basal_Viability ATP HCT116 IC50/EC50 (HCT116): 16.3036 µM
- GSK3b inh pretreated_Viability ATP HCT116 IC50/EC50 [2]: 0.06911 µM
- Basal_Viability ATP Colo 320 IC50/EC50 (Colo320): 9.382 µM
- Basal_Viability ATP HT-29 IC50/EC50 (HT-29): 9.4494 µM
- Basal_Viability ATP RKO IC50/EC50 (RKO): 0.1924 µM
- Basal_Viability ATP SNU-C1 IC50/EC50 (SNU-C1): 12.767 µM

SMILES: O=Cc1ccc(O)c(O)c1O [NCGC00262933-01]
- IC50/EC50, Hela CellCycMod PI 2N (assay number 14) (HeLa cells): > 10 µM
- IC50/EC50, Hela CellCycMod PI 4N (assay number 16) (HeLa cells): > 10 µM
- IC50/EC50, Hela CellCycMod PI Cell Number (assay number 18) (HeLa cells): > 10 µM
- IC50/EC50, Hela CellCycMod PI MI (assay number 17) (HeLa cells): > 10 µM
- IC50/EC50, Hela CellCycMod PI S Phase (assay number 15) (HeLa cells): > 10 µM
- IC50/EC50, Basal_Viability ATP DLD-1 (assay number 23) (DLD-1): > 20 µM
- IC50/EC50, Basal_Viability ATP SW480 (assay number 24) (SW480): 11.3319 µM
- IC50/EC50, Basal_Viability ATP HCT116 (assay number 25) (HCT116): > 20 µM
- IC50/EC50, GSK3b inh pretreated_Viability ATP HCT116 (assay number 26) [2]: 0.1412 µM
- IC50/EC50, Basal_Viability ATP Colo 320 (assay number 27) (Colo320): 9.0837 µM
- IC50/EC50, Basal_Viability ATP HT-29 (assay number 28) (HT-29): > 20 µM
- IC50/EC50, Basal_Viability ATP RKO (assay number 29) (RKO): 6.232 µM
- IC50/EC50, Basal_Viability ATP SNU-C1 (assay number 30) (SNU-C1): > 20 µM
